Read-outs that look alike come from different tables or passages of the source.
Columns and labels:
[1] = Solubility in water; details: physiologic pH, generally between pH 6 and 8
[2] = system: HIV-1 HI 12.2; assay: Susceptibility of pretherapy AZT-susceptible isolate in acutely infected PBMC; format: cell-based; details: Human immunodeficiency virus 1, PBMC, read-out: EC50 against pretherapy isolate
Excerpt: (§1) The availability of AZT-resistant and -susceptible viruses allowed us to evaluate the compounds of this invention for their susceptibilities to these viruses in acutely infected PBMC in two experiments. […] In the same assay, the EC50 for TIBO [(+)-(5s)-4,5,6,7-tetrahydro-5methyl-6-(3-methyl-2-butenyl)imidazo(4,5,1-jk)(1,4)benzodiazepin-2(1 H)-thione] R82150 increased >500-fold (data not shown).

[3] = Cytotoxicity in uninfected PBMC; format: cell-based, human; details: human, uninfected PBMC; thymidine uptake day 2 and cell counts day 6
[4] = system: HIV-1G910-6; assay: microbe, parasite or virus in culture; format: cell-based
Excerpt: as §1

[5] = Cytotoxicity in H9 cells; format: cell-based, human; details: human, H9 cells; cell counts on day 6
[6] = system: HIV-1III; assay: Antiviral activity in chronically infected H9 cells, virus RT level; format: cell-based
Experimental: (§2) Compound 2c was evaluated for antiviral activity in cells acutely and chronically infected with human immunodeficiency virus (HIV). Reverse transcriptase (RT) levels associated with virus were determined with virus concentrated from cell culture supernatants by high-speed centrifugation to reduce the chances of drug carryover in the enzyme assay using the method described in R. F. Schinazi, et al., Antimicrob. Agents Chemother., 36:2423-2431, 1992.

[7] = target: DNA polymerase α (Homo sapiens, UniProt P09884); assay: Inhibition of cellular DNA polymerase α, cell-free; format: biochemical; details: AZT-5′-triphosphate used for AZT, read-out: IC50 Polymerases: DNA Polymerase α
[8] = Cytotoxicity in CEM cells; format: cell-based; details: human, CEM cells; cell counts on day 6
[9] = target: HIV-1 RT (Human immunodeficiency virus type 1 group M subtype B, UniProt P04585); assay: Inhibition of recombinant p66/51 HIV-1 RT, poly(rA)n.oligo(T)12-18 template-primer; format: biochemical; details: cell-free; AZT-5′-triphosphate used for AZT; read-out: IC50 Polymerases: HIV-1 RT
Experimental: The compound was also evaluated for its inhibitory effect on recombinant p66/51 HIV-1 RT by using poly(rA)n.oligo(T)12-18 as the template-primer as described in Schinazi, et al. (1992, supra). Compound 2c was active against this enzyme, with a median inhibitory concentration (1C50) of 4.6 μM. This value was of the same order of magnitude as that noted for the antiviral assays (TABLE 3). […] AZT-5′ triphosphate and phosphonoformate (PFA), used as positive controls, were effective and selective against HIV-1 RT.

[10] = system: HIV-1 LAI; assay: Antiviral activity in acutely infected human PBMC, virus RT level; format: cell-based; details: acutely infected, virus RT level on day 6, read-out: Antiviral Activity (EC50) in PBMC infected with HIVLAI
Experimental: as §2

[11] = system: HIV-2ROD; assay: as above; format: cell-based; details: acutely infected, virus RT level on day 6, read-out: Antiviral Activity (EC50) in PBMC infected with HIV-2ROD
Experimental: as §2

[12] = Cytotoxicity in Vero cells; format: cell-based; details: African green monkey, Vero cells; day 3
[13] = target: T1, HIV-1 protease (HIVP) (Human immunodeficiency virus type 1 group M subtype B, UniProt P04585); assay: Inhibition of HIV-1 protease, HPLC assay with kinetic analysis; format: biochemical; details: 50 mM NaAc pH 5.5, 1.0 M NaCl; 5 min preincubation; fit to competitive inhibition; read-out: Ki
T1 construct: HIV produces a small, dimeric aspartyl protease which specifically cleaves the polyprotein precursors
Experimental: The ability of compound 2c to inhibit the HIVP was assayed with an HPLC method as described in R. L DesJarlais, et al., Proc. Natl. Acad. Sci U.S.A., 87:6644-6648, 1990. […] Assays were performed in buffer containing 50 mM NaAc pH 5.5, 1.0 M NaCl, 5% glycerol, 1% DMSO, and 2 mM EDTA. Inhibitor was preincubated with ≈0.05 μg of enzyme for 5 minutes at which time the reaction was initiated by addition of substrate. The reaction was quenched at <15% product formation by the addition of 15 μL of 10% TFA. The cleavage products of the substrate peptide H-Lys-Ala-Arg-Val-Tyr-p-nitro-Phe-Glu-Ala-Ile-NH2 (made by Bachem, Philadelphia, Pa.) were assayed by HPLC using a 10-40% (acetonitrile, 0.1% TFA): (water, 0.1% TFA) gradient over 30 minutes at 1 mL/minute. Product was quantitated by integration of peak areas followed by comparison to product standard curves.
Determination of kinetic constants was done with the program KinetAsyst (IntelliKinetics) by fitting of the data to the equation […]] which describes competitive inhibition.

[14] = system: PBMC; assay: Cytotoxicity in uninfected PBMC; format: cell-based, human; details: thymidine uptake day 2 and cell counts day 6
[15] = system: CEM cells; assay: Cytotoxicity in CEM cells; format: cell-based; details: cell counts on day 6
[16] = system: Vero cells; assay: Cytotoxicity in Vero cells; format: cell-based; details: day 3
[17] = system: nevirapine (BI-RG587)-resistant HIV-1; assay: Susceptibility of nevirapine-resistant HIV-1; format: cell-based

Sequence of DNA polymerase α (P09884 whole entry): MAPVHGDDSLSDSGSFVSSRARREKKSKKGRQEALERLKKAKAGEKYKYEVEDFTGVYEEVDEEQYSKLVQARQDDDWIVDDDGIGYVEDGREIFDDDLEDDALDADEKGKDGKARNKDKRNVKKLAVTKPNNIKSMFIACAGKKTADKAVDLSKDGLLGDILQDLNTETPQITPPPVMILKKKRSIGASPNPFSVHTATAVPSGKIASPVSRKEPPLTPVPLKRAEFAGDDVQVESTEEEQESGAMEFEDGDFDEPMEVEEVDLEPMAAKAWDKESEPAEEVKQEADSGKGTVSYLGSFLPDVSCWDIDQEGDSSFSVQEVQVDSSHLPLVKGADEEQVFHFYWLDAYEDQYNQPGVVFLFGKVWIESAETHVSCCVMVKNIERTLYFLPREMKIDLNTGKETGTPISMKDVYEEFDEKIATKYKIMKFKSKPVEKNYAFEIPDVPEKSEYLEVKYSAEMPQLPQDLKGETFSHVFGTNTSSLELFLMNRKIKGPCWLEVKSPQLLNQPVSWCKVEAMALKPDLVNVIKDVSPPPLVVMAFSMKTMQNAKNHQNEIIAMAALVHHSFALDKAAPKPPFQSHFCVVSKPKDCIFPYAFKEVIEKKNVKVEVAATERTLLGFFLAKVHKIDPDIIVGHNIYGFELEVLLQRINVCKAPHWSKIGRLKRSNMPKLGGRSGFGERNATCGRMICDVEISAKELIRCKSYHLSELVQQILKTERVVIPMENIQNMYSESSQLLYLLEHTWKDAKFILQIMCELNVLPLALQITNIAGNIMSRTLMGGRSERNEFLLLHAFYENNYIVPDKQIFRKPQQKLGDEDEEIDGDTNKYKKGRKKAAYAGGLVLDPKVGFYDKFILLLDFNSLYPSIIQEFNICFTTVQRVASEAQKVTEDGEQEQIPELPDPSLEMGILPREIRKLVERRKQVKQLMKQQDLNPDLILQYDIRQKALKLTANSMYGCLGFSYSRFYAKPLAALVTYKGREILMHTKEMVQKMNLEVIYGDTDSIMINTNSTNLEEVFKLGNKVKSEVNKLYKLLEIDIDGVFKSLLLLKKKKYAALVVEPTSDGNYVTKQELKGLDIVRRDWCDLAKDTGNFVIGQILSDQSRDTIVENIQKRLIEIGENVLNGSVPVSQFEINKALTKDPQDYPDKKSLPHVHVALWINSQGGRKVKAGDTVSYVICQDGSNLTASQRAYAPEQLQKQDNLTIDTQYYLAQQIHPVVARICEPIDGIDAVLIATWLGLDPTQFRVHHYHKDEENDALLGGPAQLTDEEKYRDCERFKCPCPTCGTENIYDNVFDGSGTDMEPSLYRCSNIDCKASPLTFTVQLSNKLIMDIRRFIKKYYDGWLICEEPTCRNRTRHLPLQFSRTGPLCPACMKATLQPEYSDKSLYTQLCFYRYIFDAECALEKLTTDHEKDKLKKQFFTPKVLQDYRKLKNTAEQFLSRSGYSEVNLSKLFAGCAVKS
Sequence of DNA polymerase α (Q14181 whole entry partner): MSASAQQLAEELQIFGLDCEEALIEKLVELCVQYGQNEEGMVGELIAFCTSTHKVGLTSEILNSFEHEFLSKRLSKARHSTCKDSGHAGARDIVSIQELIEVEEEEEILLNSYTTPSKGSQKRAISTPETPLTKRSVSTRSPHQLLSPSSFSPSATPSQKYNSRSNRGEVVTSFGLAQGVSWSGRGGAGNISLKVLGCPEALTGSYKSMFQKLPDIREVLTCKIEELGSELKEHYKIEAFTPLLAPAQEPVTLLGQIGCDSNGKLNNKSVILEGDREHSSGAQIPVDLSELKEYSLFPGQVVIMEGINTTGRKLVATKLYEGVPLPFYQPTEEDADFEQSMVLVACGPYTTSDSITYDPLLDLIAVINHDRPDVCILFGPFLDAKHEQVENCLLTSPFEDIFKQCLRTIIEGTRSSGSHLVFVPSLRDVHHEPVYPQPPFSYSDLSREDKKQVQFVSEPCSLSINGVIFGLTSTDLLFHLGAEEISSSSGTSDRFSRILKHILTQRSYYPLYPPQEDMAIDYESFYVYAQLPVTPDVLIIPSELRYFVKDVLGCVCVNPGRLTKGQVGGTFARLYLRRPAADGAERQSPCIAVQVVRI
Sequence of DNA polymerase α (P49642 whole entry partner): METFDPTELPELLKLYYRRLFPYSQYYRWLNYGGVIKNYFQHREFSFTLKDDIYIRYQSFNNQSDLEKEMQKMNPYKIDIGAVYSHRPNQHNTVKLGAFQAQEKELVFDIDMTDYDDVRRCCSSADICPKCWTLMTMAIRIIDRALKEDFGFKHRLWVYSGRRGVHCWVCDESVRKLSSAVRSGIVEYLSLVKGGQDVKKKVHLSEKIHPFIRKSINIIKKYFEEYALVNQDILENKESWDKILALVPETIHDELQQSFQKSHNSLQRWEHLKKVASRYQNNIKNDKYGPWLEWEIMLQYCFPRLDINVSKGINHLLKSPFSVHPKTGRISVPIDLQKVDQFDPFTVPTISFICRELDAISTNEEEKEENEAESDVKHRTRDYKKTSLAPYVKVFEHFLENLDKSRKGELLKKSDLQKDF
Sequence of DNA polymerase α (P49643 whole entry partner): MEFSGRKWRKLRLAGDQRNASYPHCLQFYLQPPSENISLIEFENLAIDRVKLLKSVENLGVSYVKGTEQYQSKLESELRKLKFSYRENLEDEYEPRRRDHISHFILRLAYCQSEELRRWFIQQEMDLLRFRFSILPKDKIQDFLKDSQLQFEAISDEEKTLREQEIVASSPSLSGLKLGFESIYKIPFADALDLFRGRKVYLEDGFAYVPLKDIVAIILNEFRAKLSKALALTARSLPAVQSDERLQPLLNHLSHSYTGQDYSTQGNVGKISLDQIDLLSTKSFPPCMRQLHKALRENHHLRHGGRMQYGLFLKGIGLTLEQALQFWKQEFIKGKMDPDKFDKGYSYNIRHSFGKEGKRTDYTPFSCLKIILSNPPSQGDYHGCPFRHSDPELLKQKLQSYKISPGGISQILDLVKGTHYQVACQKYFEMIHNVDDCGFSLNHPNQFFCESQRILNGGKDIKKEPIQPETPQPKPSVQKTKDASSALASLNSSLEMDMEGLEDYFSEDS

## 4,4′-Bis(2-aminoethyl)diphenyl C61 [hydrochloride salt of compound 2b]
[1]
  water solubility: not to be soluble

## Cc1cn([C@H]2C[C@H](N=[N+]=[N-])[C@@H](CO)O2)c(=O)[nH]c1=O [AZT, 3′-Azido-3′-deoxythymidine, reference compound]
[2]
  EC50: < 1 nM
[3]
  IC50: > 100000 nM
[4]; Human immunodeficiency virus 1, PBMC, read-out: EC50 against AZT-resistant HIV-1, acutely infected PBMC / lymphocytes
  EC50: 180 nM
[4]; virus pair HIV-1 HI 12.2 / HIV-1G910-6
  increase of EC50, AZT-resistant vs pretherapy virus: more than 180 fold
[5]
  IC50 at 6 days: 60000 nM
[6]
  effect in chronically infected H9 cells: no effect
[6]; Human immunodeficiency virus 1, H9, 144 h, chronically infected, virus RT level after 6 days of treatment, read-out: Antiviral Activity (EC50) in H9 cells infected with HIV-1III
  EC50: > 100000 nM
[7]
  IC50: > 100000 nM
[8]
  IC50 at 6 days: 13000 nM
[9]
  IC50: 40 nM
[10]; Human immunodeficiency virus 1, PBMC, 144 h
  EC50: 4 nM
[11]; Human immunodeficiency virus 2, PBMC, 144 h
  EC50: 3 nM
[12]
  IC50 at 3 days: 23000 nM

## NCCc1ccc(C2(c3ccc(CCN)cc3)C34c5c6c7c8c9c%10c(c%11c%12c3c3c5c5c%13c6c6c7c7c9c9c%14c%10c%10c%11c%11c%12c%12c3c3c5c5c%13c%13c6c6c7c9c7c9c%14c%10c%10c%11c%11c%12c3c3c5c5c%13c6c7c6c9c%10c%11c3c56)C824)cc1 [Compound 2b, 4,4′-Bis(2-aminoethyl)diphenyl C61]
[13]
  Ki: ~2000 nM

## O=C(O)P(=O)(O)O [PFA, phosphonoformate, reference compound]
[14]
  IC50: > 640000 nM
[7]
  IC50: > 100000 nM
[15]
  IC50: > 100000 nM
[9]
  IC50: 320 nM
[10]
  EC50: 430 nM
[11]
  EC50: 440 nM
[16]
  IC50: > 100000 nM

## CC(C)=CCN1Cc2cccc3[nH]c(=S)n(c23)C[C@@H]1C [TIBO R82150, (+)-(5s)-4,5,6,7-tetrahydro-5methyl-6-(3-methyl-2-butenyl)imidazo(4,5,1-jk)(1,4)benzodiazepin-2(1 H)-thione, reference compound]
[17]
  increase in resistance, nevirapine-resistant vs -susceptible HIV-1: > 500 fold

— US20010041801A1, “Water soluble fullerenes with antiviral activity” (The Regents of the University of California, priority 1994, published 2001)
